{"source": "patent US20070026478A1", "about": "“Hemiasterlin affinity probes and their uses” (WYETH, priority 2002, published 2007)", "key": {"bovine brain tubulin [1]": {"biological_target": "T1, bovine brain tubulin (Bos taurus, UniProt P81947+Q6B856)", "T1 construct": "MAP-rich bovine brain tubulin (99% purity), Hela cell tubulin (90% purity); purchased Cytoskeleton (Denver, Colo.); host or cells: bovine brain", "assay": "Radiolabeled Probe 1 binding by centrifugal gel filtration", "conditions": "0.5 μM tubulin, 0.005-5 μM radiolabeled Probe 1, room temperature; read-out: apparent KD, radiolabeled probe technique", "protocol": "Binding of Probe 1 to bovine brain tubulin was also assessed by incubating 0.5 μM tubulin with 0.005-5 μM radiolabeled Probe 1 both in the presence and in the absence of 5 μM non-radiolabeled probe 1 as a competitor. Incubations were performed for 30 minutes at room temperature in PEM buffer. Binding was measured using centrifugal gel filtration on Sephadex G-50 (Microspin G-50) as described (Bai et al., Cancer Res. 1996, 56:4398-4406). Spin columns (Amersham Biosciences, Piscataway, N.J.) were centrifugated for 1 minute at 2000 rpm in a microcentrifuge immediately prior to use, and samples applied in 50 μL total volume, followed by a 2 minute centrifugation at the same speed. The amount of probe 1 bound to tubulin was quantitated by measuring the radioactivity within aliquots collected after centrifugation. The KD value, representing 50% of specific binding, was calculated from the curve generated by subtracting the amount of […]."}, "bovine MAP-rich tubulin": {"biological_target": "T2, bovine MAP-rich tubulin (Bos taurus, UniProt P81947+Q6B856)", "T2 construct": "MAP-rich bovine brain tubulin (99% purity), Hela cell tubulin (90% purity); purchased Cytoskeleton (Denver, Colo.); host or cells: bovine brain", "assay": "Tubulin polymerization assay in a cell-free system", "format": "biochemical", "conditions": "0.3 μM compound", "protocol": "In vitro tubulin polymerization assays were performed according to procedures that have been described elsewhere (Loganzo et al., Cancer Res. 2003, 63:1838-1845). Briefly, bovine MAP-rich tubulin (final concentration 1.5 mg/mL) was dissolved in cold PEM buffer containing 1 mM GTP (GPEM) and centrifuged at 12,000×g for 10 minutes at 4° C. The tubulin solution (100 μL/well) was added rapidly to wells of a low-volume, 96-well plate already containing duplicate aliquots (10 μL) of test compounds in GPEM. Final compound concentrations were 0.3 μM. Control wells contained the same final concentration of DMSO (0.3%). After initiation of the reaction, absorbance at 340 nm was measured every minute for 60 minutes at 24° C. using a SpectraMax Plus plate reader (Molecular Devices, Sunnyvale, Calif.). An increase in absorbance over time indicated an increase in turbidity resulting from tubulin polymerization."}, "bovine brain tubulin [2]": {"biological_target": "T1, bovine brain tubulin", "assay": "Competition of [3H]-Probe 1 photolabeling of tubulin", "format": "binding", "conditions": "for inhibition of tubulin labeling by non-radiolabeled probe: 100 μM non-radiolabeled; for Probe 1 photolabeling of tubulin (% of no-competitor control): control (no competitor) = 100", "protocol": "(§1) Alternatively, a cytosolic preparation of KB-3-1 cell lysates (50 μg) or KB-3-1 cells (40,000 cells) were used in the place of purified tubulin above. The supernatant of mechanically disrupted cells centrifuged at 100,000×g was used as a cytosolic preparation. K-3-1 cells were prepared by growing KB-3-1 cells in a 96-well plate and rinsing them with serum free medium.\nIf whole cells were used, Laemmli sample buffer was then added to lyse the cells.\nLow grade SDS (Sigma, catalog No. L5750) was used in the running buffer, when needed, to allow separation of α and β-tubulin subunits. Gels were fixed, stained with Coomassie blue from BioRad (Hercules, Calif.) to ensure equal loading of protein, and sliced. […] Alternatively, gels were incubated with EN^3HANCE according to the manufacturer's instructions (Life Sciences Products, Inc.), washed, and dried prior to exposure of the gel to Biomax MX film from Kodak (Rochester, N.Y.) for fluorography.\nAfter incubation for 30 minutes at 37° C., samples were irradiated with 360 nm UV light for 30 minutes and separated by SDS-PAGE. Gels were exposed to film using fluorographic techniques.\nIn particular, photolabeling experiments were performed as described in section 7.1.5 above, at both room temperature and at 37° C."}, "[3]": {"biological_target": "T3, tubulin in KB-3-1 cell lysates (Homo sapiens, UniProt P07437+P68363)", "T3 construct": "a cytosolic preparation of KB-3-1 cell lysates (50 μg) or KB-3-1 cells (40,000 cells) were used in the place of purified tubulin; endogenous in cells; host or cells: KB-3-1 cells (cytosolic supernatant at 100,000 x g, or whole cells)", "assay": "Probe 1 photolabeling in KB-3-1 cell lysates", "format": "binding", "conditions": "250 μM non-radiolabeled, 2.5 μM [3H]-probe 1, KB-3-1 cell lysates (50 μg)", "protocol": "FIG. 1B illustrates the labeling of KB-3-1 cell lysates (50 μg) (lanes 1 and 2) and purified bovine brain (BB) tubulin (5 μg) (lanes 3 and 4) incubated for 30 minutes at room temperature with 2.5 μM [^3H]-probe 1. Samples in lanes 1 and 3 were pre-incubated with 250 μM non-radiolabeled probe 1 prior to incubation with radiolabeled materials. Samples were analyzed as described in FIG. 1A. Lanes marked “M” are molecular weight markers in kDa.\nas §1, with “medium. For experiments with whole cells, 250 μM HTI-286 was used as the competitor molecule during pre-incubation at 37° C. for 15 minutes.” for “medium.”"}, "α-tubulin": {"biological_target": "T4, α-tubulin (Bos taurus, UniProt P81947)", "T4 construct": "MAP-rich bovine brain tubulin (99% purity), Hela cell tubulin (90% purity); purchased Cytoskeleton (Denver, Colo.); host or cells: bovine brain", "assay": "Subtilisin digestion of tubulin before or after labeling with Probe 1", "format": "biochemical, bovine", "protocol": "FIGS. 6A-6C provide data for the digestion of tubulin by subtilisin before or after photoaffinity labeling with Probe 1. FIG. 6A diagrams the predicted subtilisin cleavage site and cleavage products for α-tubulin. FIG. 6B provides Coomassie staining (top) and fluorographic (bottom) images of fragments photolabeled with Probe 1 and exposed to subtilisin as follows: Tubulin (5 μg) was incubed without (Lanes 1 and 4) or with 0.2 μg subtilisin for 60 minutes at 30° C. and then photolabeled with 0.25 μM [^3H]-Probe 1 (Lane 2) according to conditions specified in Section 6.1.11. Alternatively, photolabeling was done before subtilisin digestions (Lane 3). In both cases samples were then separated by SDS-PAGE. […] Again, samples were separated by SDS-PAGE.\nBefore or after incubating with 0.25 μM (0.36 μCi) [^3H]-Probe 1 for 30 minutes at room temperature and irradiating as described in Section 7.1.5, tubulin (5 μg) was digested under native conditions with subtilisin (0.2 μg) for 60 minutes at 30° C. Enzymatic digestions were stopped with 1 mM PMSF. After both digestion and labeling, samples were resolved by SDS-PAGE under conditions that allowed separation of α- and β-tubulin subunits. Gels were then fixed and stained with Coomassie blue from BioRad (Hercules, Calif.) and subjected to fluorography."}}, "note": "Marks after values point to notes of the source that are not given here."}
{"smiles": "CN[C@H](C(=O)N[C@H](C(=O)N(C)[C@H](/C=C(\\C)C(=O)O)C(C)C)C(C)(C)C)C(C)(C)c1ccc(C(=O)c2ccccc2)cc1", "note": "[Probe 1, 4-benzoyl-N,β,β-trimethyl-L-phenylalanyl-N^1-[(1S,2E)-3-carboxy-1-isopropylbut-2-enyl]-N^1,3-dimethyl-L-valinamide]", "values": [{"measurement": "Kd", "setting": "bovine brain tubulin [1]", "value": 350, "unit": "nM"}, {"measurement": "inhibition at 0.3 µM", "setting": "bovine MAP-rich tubulin", "value": 88, "unit": "%"}, {"measurement": "inhibition of tubulin labeling by non-radiolabeled probe", "setting": "bovine brain tubulin [2]; tubulin: radiolabeled probe 1 of 2.5:0.25 (10:1)", "value": 93, "unit": "%"}, {"measurement": "inhibition of tubulin labeling by non-radiolabeled probe", "setting": "bovine brain tubulin [2]; tubulin: radiolabeled probe 1 of 2.5:2.5 (1:1)", "value": 82, "unit": "%"}, {"measurement": "reduction of Probe 1 photolabeling of tubulin", "setting": "bovine brain tubulin [2]; 37° C.", "value": "about 75%"}, {"measurement": "Probe 1 photolabeling of tubulin (% of no-competitor control)", "setting": "bovine brain tubulin [2]; 37° C., 100 μM competitor", "value": "24^† %"}, {"measurement": "Probe 1 photolabeling of tubulin (% of no-competitor control)", "setting": "bovine brain tubulin [2]; Room Temp., 2.5 μM tubulin, 0.25 μM radiolabeled Probe 1, 100 μM competitor", "value": "12 ± 7.8", "unit": "%"}, {"measurement": "IC50", "setting": "bovine brain tubulin [2]; room temperature, 2.5 μM tubulin, 0.25 μM radiolabeled Probe 1, read-out: IC50 for inhibition of Probe 1 photolabeling of tubulin", "value": 5000, "unit": "nM"}, {"measurement": "reduction of Probe 1 photolabeling of tubulin", "setting": "bovine brain tubulin [2]; room temperature, 400-fold molar excess (100 μM) competitor, 2.5 μM tubulin, 0.25 μM radiolabeled Probe 1", "value": "approximately 87%"}, {"measurement": "inhibition of radiolabeled Probe 1 binding in cell lysates", "setting": "[3]", "value": "can inhibit the binding of radiolabled Probe 1"}, {"measurement": "effect on subtilisin digestion of α-tubulin", "setting": "α-tubulin; 0.25 μM radiolabeled", "value": "partially inhibits the digestion of α-tubulin"}, {"measurement": "effect on subtilisin digestion of α-tubulin", "setting": "α-tubulin; 100 or 250 μM non-radiolabeled, β-tubulin is completely digested", "value": "completely blocks"}]}
